Source: patent US5023271A, “Pharmaceutical microemulsions” (priority 1985, dated 1991)

What was measured:
lipoprotein fractions = test: Distribution of injected α-tocopherol and tocopherol acetate among serum lipoprotein fractions of rabbits
Procedure: The serum samples were also layered under a sodium chloride gradient and centrifuged. The distribution of the injected α-tocopherol and tocopherol acetate among the lipoprotein fractions was assessed.

[1] = system: lipoprotein components of human serum; test: In vitro transfer of tocopherol from microemulsion to human serum lipoproteins (sodium chloride gradient); settings: 100 μl microemulsion of Example 1 + 900 μl saline, 1 hr, 37°
Procedure: The diffusion of tocopherol in the mixtures was compared with the distribution of lipoproteins in the same mixtures and with the distribution of tocopherol from the untreated emulsion.
For a control, 100 μl of the microemulsion were incubated with 900 μl of saline solution under the same conditions. Each mixture was underlayered in a sodium chloride gradient and separated by ultracentrifugation according to Foreman, et al, J Lipid Research (1977) 18:759-767. The fractions of various densities were collected and each fraction was assayed for the content of tocopherol, tocopherol acetate, and cholesterol. The microemulsion alone mixed with saline gives a single peak for tocopherol at a density of approximately 1.018 g/ml. […] The treatment of microemulsion with serum effects the transfer of the tocopherol to serum in conjunction with the lipoprotein content thereof.

[2] = cited from earlier work
[3] = Short term serum and tissue levels after intravenous injection to rabbits
From the text: (§1) The rabbits were then sacrificed and the tissues analyzed for their content of tocopherol and tocopherol acetate.

[4] = Serum and liver extract levels in rats after IV injection; settings: 1 ml preparation of Example 1 IV
Procedure: The animals were sacrificed at 15 minute intervals for the first hour, after two hours, and then after 1, 3, 5, and 10 days. The levels of α-tocopherol and tocopherol acetate were assayed in the sera and liver extracts.

[5] = Long term daily injection to rabbits, serum samples at 1 week intervals; settings: 1 ml preparation of Example 1 daily for 30 days
Procedure: New Zealand male rabbits were injected daily with 1 ml doses of the preparation of Example 1 for 30 days.

in vivo = settings: rabbit, iv, 15 mL/animal
From the text: as §1

Row | Compound | distribution among lipoprotein fractions after injection (lipoprotein fractions; rabbit, in vivo, iv) | density of the tocopherol peak, microemulsion mixed with saline (control) [1] | adverse outcome of oral administration ([2]; in vivo, po) | adverse outcome of intravenous administration ([2]; intravenous, premature infants) | α-tocopherol acetate in circulation by the end of 4 hr ([3]; 15 ml preparation of Example 1 i.v., 4 hr) | α-tocopherol acetate in liver, spleen, and other tissues ([3]; after 4 hr) | distribution among lipoprotein fractions after injection (lipoprotein fractions; preparation of Example 1 i.v., serum samples on sodium chloride gradient) | hydrolysis of tocopherol acetate in liver [4] | serum tocopherol acetate [5] | concentration at 5 min (in vivo)
1 | Cc1c(C)c2c(c(C)c1O)CCC(C)(CCCC(C)CCCC(C)CCCC(C)C)O2 (racemic) [α-tocopherol] | transferred, apparently to the LDL fraction, in exchange for cholesterol | approximately 1.018 g/ml | gastrointestinal problems | implicated in several neonatal deaths | – | – | – | – | – | –
2 | CC(=O)Oc1c(C)c(C)c2c(c1C)CCC(C)(CCC[C@H](C)CCC[C@H](C)CCCC(C)C)O2 (stereo partly drawn) [tocopherol acetate, α-tocopherol (dl) acetate] | – | – | – | – | finally disappearing from the circulation by the end of the 4 hr period | no α-tocopherol acetate could be detected | remained mainly at the density of the microemulsion alone | completely hydrolyzed after approximately two hours | No tocopherol acetate was detectable | 280 µg/mL
